# “And” between values parts separate entries of the source, which are not always exact repeats. Equal entries are not always repeated.
# Target: DNA topoisomerase II (Homo sapiens) (UniProt P11388+Q02880)
# Assay: Percentage of intracellular covalent DNA-topoisomerase II complexes formed
# Assay type: cell-based
row,Complex formation,SMILES
1,11%,COc1cc([C@@H]2c3cc(O)c(O)cc3C(Nc3ccc(F)cc3)[C@H]3COC(=O)[C@H]23)cc(OC)c1OC (stereo partly specified)
2,148%,COc1cc([C@@H]2c3cc4c(cc3[C@@H](Nc3cccnc3)[C@H]3COC(=O)[C@H]23)OCO4)cc(OC)c1O
3,190% and 183%,COc1cc([C@@H]2c3cc4c(cc3[C@@H](NCCN3CCCCC3)[C@H]3COC(=O)[C@H]23)OCO4)cc(OC)c1O
4,148%,COc1cc([C@@H]2c3cc4c(cc3[C@@H](NC(=O)Nc3ccccc3)[C@H]3COC(=O)[C@H]23)OCO4)cc(OC)c1O
5,100%,COc1cc([C@@H]2c3cc4c(cc3[C@@H](Nc3ccc(NC(=O)c5cc([N+](=O)[O-])cn5C)cc3)[C@H]3COC(=O)[C@H]23)OCO4)cc(OC)c1O
6,12%,COc1cc2c(cc1OC)[C@@H](c1cc(OC)c(OC)c(OC)c1)[C@H]1C(=O)OC[C@@H]1C2Nc1ccc(C#N)cc1 (stereo partly specified)
7,130%,COc1cc([C@@H]2c3cc4c(cc3[C@@H](NCc3cccc([N+](=O)[O-])c3)[C@H]3COC(=O)[C@H]23)OCO4)cc(OC)c1O
8,147%,COc1cc([C@@H]2c3cc4c(cc3C(Nc3ccc(C(C)=O)cc3)[C@H]3COC(=O)[C@H]23)OCO4)cc(O)c1O (stereo partly specified)
9,4%,CCOC(=O)c1ccccc1N[C@@H]1c2cc3c(cc2[C@@H](c2cc(OC)c(O)c(OC)c2)[C@H]2C(=O)OC[C@@H]21)OCO3
10,77%,COc1cc([C@@H]2c3cc4c(cc3C(Nc3ccc(Cl)cc3)[C@H]3COC(=O)[C@H]23)OCO4)cc(O)c1O (stereo partly specified)
11,33%,COc1cc([C@@H]2c3cc(O)c(O)cc3C(Nc3ccc(C#N)cc3)[C@H]3COC(=O)[C@H]23)cc(OC)c1OC (stereo partly specified)
12,138%,CCOC(=O)c1ccc(NC2c3cc(O)c(O)cc3[C@@H](c3cc(OC)c(O)c(OC)c3)[C@H]3C(=O)OC[C@H]23)cc1 (stereo partly specified)
13,125%,COc1cc([C@@H]2c3cc4c(cc3[C@@H](NC(=O)Nc3ccc(Cl)cc3)[C@H]3COC(=O)[C@H]23)OCO4)cc(OC)c1O
14,284%,COc1cc([C@@H]2c3cc4c(cc3[C@@H](NCc3ccc(C#N)cc3)[C@H]3COC(=O)[C@H]23)OCO4)cc(OC)c1O
15,175%,COC(=O)c1ccc(NC2c3cc4c(cc3[C@@H](c3cc(O)c(O)c(OC)c3)[C@H]3C(=O)OC[C@H]23)OCO4)cc1 (stereo partly specified)
16,69%,COc1ccc(NC2c3cc4c(cc3[C@@H](c3cc(O)c(O)c(OC)c3)[C@H]3C(=O)OC[C@H]23)OCO4)cc1OC (stereo partly specified)
17,21%,COc1cc([C@@H]2c3cc4c(cc3[C@@H](Nc3cc(C(F)(F)F)cc(C(F)(F)F)c3)[C@H]3COC(=O)[C@H]23)OCO4)cc(OC)c1O
18,15%,COc1cc([C@@H]2c3cc4c(cc3[C@@H](Nc3cc([N+](=O)[O-])ccc3O)[C@H]3COC(=O)[C@H]23)OCO4)cc(OC)c1O
19,249%,COC(=O)c1cccc(N[C@@H]2c3cc4c(cc3[C@@H](c3cc(OC)c(O)c(OC)c3)[C@H]3C(=O)OC[C@@H]32)OCO4)c1
20,52%,COc1cc([C@@H]2c3cc(O)c(O)cc3C(Nc3ccc(F)cc3)[C@H]3COC(=O)[C@H]23)cc(OC)c1O (stereo partly specified)

row,Complex formation,SMILES
1,8%,COc1cc2c(cc1OC)[C@@H](c1cc(OC)c(OC)c(OC)c1)[C@H]1C(=O)OC[C@@H]1C2Nc1ccc(F)cc1 (stereo partly specified)
2,279%,COc1cc([C@@H]2c3cc4c(cc3[C@@H](Nc3ccc5c(c3)OCCO5)[C@H]3COC(=O)[C@H]23)OCO4)cc(OC)c1O
3,36.4%,COc1cc([C@@H]2c3cc4c(cc3[C@@H](N)[C@H]3COC(=O)[C@H]23)OCO4)cc(OC)c1O
4,140%,COc1cc([C@@H]2c3cc4c(cc3[C@@H](Nc3cccc(N)c3)[C@H]3COC(=O)[C@H]23)OCO4)cc(OC)c1O
5,235%,COc1cc([C@@H]2c3cc4c(cc3[C@@H](Nc3cccc(CO)c3)[C@H]3COC(=O)[C@H]23)OCO4)cc(OC)c1O
6,4%,COc1cc([C@@H]2c3cc(O)c(O)cc3[C@@H](Nc3ccccc3)[C@H]3COC(=O)[C@H]23)cc(OC)c1O
7,18%,COc1cc([C@@H]2c3cc(O)c(O)cc3[C@@H](Nc3cccc(O)c3)[C@H]3COC(=O)[C@H]23)cc(OC)c1O
8,57%,COc1cc([C@@H]2c3cc4c(cc3[C@@H](Oc3ccc(F)cc3)[C@H]3COC(=O)[C@H]23)OCO4)cc(OC)c1O
9,62%,COc1cc([C@@H]2c3cc(O)c(O)cc3C(Nc3ccc(C#N)cc3)[C@H]3COC(=O)[C@H]23)cc(OC)c1O (stereo partly specified)
10,167%,COc1cc([C@@H]2c3cc4c(cc3[C@@H](NC[C@H](C)O)[C@H]3COC(=O)[C@H]23)OCO4)cc(OC)c1O
11,137%,COc1cc([C@@H]2c3cc4c(cc3[C@@H](Nc3cccc(C#N)c3)[C@H]3COC(=O)[C@H]23)OCO4)cc(OC)c1O
12,207%,CCOC(=O)c1ccc(N[C@@H]2c3cc4c(cc3[C@@H](c3cc(OC)c(O)c(OC)c3)[C@H]3C(=O)OC[C@@H]32)OCO4)cc1
13,75%,COc1cc2c(cc1OC)[C@@H](c1cc(OC)c(O)c(OC)c1)[C@H]1C(=O)OC[C@@H]1C2Nc1ccc([N+](=O)[O-])cc1 (stereo partly specified)
14,100%,COc1cc([C@@H]2c3cc4c(cc3[C@@H](O[C@@H]3O[C@@H]5CO[C@@H](C)O[C@H]5[C@H](O)[C@H]3O)[C@H]3COC(=O)[C@H]23)OCO4)cc(OC)c1O
15,179% and 186%,COc1cc([C@@H]2c3cc4c(cc3[C@@H](NCCCN(C)C)[C@H]3COC(=O)[C@H]23)OCO4)cc(OC)c1O
16,149%,COc1cc([C@@H]2c3cc4c(cc3[C@@H](NC(=O)c3cccc(N)c3)[C@H]3COC(=O)[C@H]23)OCO4)cc(OC)c1O
17,116%,COc1cc([C@@H]2c3cc4c(cc3[C@@H](NC(=O)c3cccc(F)c3)[C@H]3COC(=O)[C@H]23)OCO4)cc(OC)c1O
18,230%,COc1cc([C@@H]2c3cc4c(cc3[C@@H](Nc3cccc([N+](=O)[O-])c3)[C@H]3COC(=O)[C@H]23)OCO4)cc(OC)c1O
19,120%,COc1cc([C@@H]2c3cc4c(cc3[C@@H](NC(=O)c3ccc(N)cc3)[C@H]3COC(=O)[C@H]23)OCO4)cc(OC)c1O
20,125%,COc1cc2c(cc1OC)[C@@H](c1cc(OC)c(O)c(OC)c1)[C@H]1C(=O)OC[C@@H]1C2Nc1ccc(C#N)cc1 (stereo partly specified)

row,SMILES,Complex formation
1,COc1cc([C@@H]2c3cc4c(cc3[C@@H](Nc3ccc(N)cc3)[C@H]3COC(=O)[C@H]23)OCO4)cc(OC)c1O,330%
2,COc1cc([C@@H]2c3cc4c(cc3[C@@H](NC(=O)c3cccc(C#N)c3)[C@H]3COC(=O)[C@H]23)OCO4)cc(OC)c1O,149%
3,COc1cc([C@@H]2c3cc4c(cc3[C@@H](NCc3cccc(C#N)c3)[C@H]3COC(=O)[C@H]23)OCO4)cc(OC)c1O,225%
4,COc1cc([C@@H]2c3cc4c(cc3C(Nc3ccc([N+](=O)[O-])cc3)[C@H]3COC(=O)[C@H]23)OCO4)cc(O)c1O (stereo partly specified),200%
5,COc1cc([C@@H]2c3cc4c(cc3[C@@H](NCCO)[C@H]3COC(=O)[C@H]23)OCO4)cc(OC)c1O,121%
6,COc1cc([C@@H]2c3cc4c(cc3[C@@H](Nc3nc5ccccc5[nH]3)[C@H]3COC(=O)[C@H]23)OCO4)cc(OC)c1O,58%
7,COc1cc([C@@H]2c3cc4c(cc3[C@@H](Nc3ccccc3)[C@H]3COC(=O)[C@H]23)OCO4)cc(OC)c1O,243%
8,COc1ccc(N[C@@H]2c3cc4c(cc3[C@@H](c3cc(OC)c(O)c(OC)c3)[C@H]3C(=O)OC[C@@H]32)OCO4)c([N+](=O)[O-])c1,15%
9,COc1cc([C@@H]2c3cc4c(cc3[C@@H](Nc3ccc(NC(=O)C56CCC(C)(C(=O)O5)C6(C)C)cc3)[C@H]3COC(=O)[C@H]23)OCO4)cc(OC)c1O (stereo partly specified),88%
10,COc1cc([C@@H]2c3cc4c(cc3C(Nc3ccc(C#N)cc3)[C@H]3COC(=O)[C@H]23)OCO4)cc(O)c1O (stereo partly specified),146%
11,COc1cc([C@@H]2c3cc4c(cc3[C@@H](Nc3cc(F)cc(F)c3)[C@H]3COC(=O)[C@H]23)OCO4)cc(OC)c1O,115%
12,COc1ccc([N+](=O)[O-])cc1N[C@@H]1c2cc3c(cc2[C@@H](c2cc(OC)c(O)c(OC)c2)[C@H]2C(=O)OC[C@@H]21)OCO3,12%
13,COc1cc([C@@H]2c3cc(O)c(O)cc3[C@@H](Nc3ccc([N+](=O)[O-])cc3)[C@H]3COC(=O)[C@H]23)cc(OC)c1O,99%
14,COc1cc([C@@H]2c3cc4c(cc3[C@@H](Nc3ccc([N+](=O)[O-])cc3)[C@H]3COC(=O)[C@H]23)OCO4)cc(OC)c1O,323%
15,COc1cc([C@@H]2c3cc4c(cc3[C@@H](O)[C@H]3COC(=O)[C@H]23)OCO4)cc(OC)c1O,42.2%
16,COc1cc([C@@H]2c3cc4c(cc3C(Nc3ccc(F)cc3)[C@H]3COC(=O)[C@H]23)OCO4)cc(O)c1O (stereo partly specified),117%
17,COc1cc([C@@H]2c3cc4c(cc3[C@@H](NCc3cccc(F)c3)[C@H]3COC(=O)[C@H]23)OCO4)cc(OC)c1O,216%
18,COc1cc([C@@H]2c3cc4c(cc3[C@@H](Nc3ccccn3)[C@H]3COC(=O)[C@H]23)OCO4)cc(OC)c1O,97%
19,COc1cc2c(cc1OC)[C@@H](c1cc(OC)c(O)c(OC)c1)[C@H]1C(=O)OC[C@@H]1C2Nc1ccc(F)cc1 (stereo partly specified),108%
20,COc1cc([C@@H]2c3cc4c(cc3[C@@H](Nc3cccc(F)c3)[C@H]3COC(=O)[C@H]23)OCO4)cc(OC)c1O,158%
21,COc1cc([C@@H]2c3cc4c(cc3[C@@H](Nc3ccc(Cl)cc3)[C@H]3COC(=O)[C@H]23)OCO4)cc(OC)c1O,99%
22,COc1cc([C@@H]2c3cc4c(cc3[C@@H](Nc3ccccc3F)[C@H]3COC(=O)[C@H]23)OCO4)cc(OC)c1O,121%
23,COc1cc([C@@H]2c3cc4c(cc3[C@@H](NC(=O)c3cccc([N+](=O)[O-])c3)[C@H]3COC(=O)[C@H]23)OCO4)cc(OC)c1O,86%
24,COc1cc([C@@H]2c3cc4c(cc3[C@@H](Nc3ccc(-c5nc6ccccc6[nH]5)cc3)[C@H]3COC(=O)[C@H]23)OCO4)cc(OC)c1O,128%
25,COc1cc([C@@H]2c3cc4c(cc3[C@@H](Nc3cccc(Br)c3)[C@H]3COC(=O)[C@H]23)OCO4)cc(OC)c1O,62%
26,COc1cc([C@@H]2c3cc4c(cc3[C@@H](NC(=O)c3ccc(C(C)=O)cc3)[C@H]3COC(=O)[C@H]23)OCO4)cc(OC)c1O,124%

# — ChEMBL document CHEMBL1135425, “Antitumor agents. 213. Modeling of epipodophyllotoxin derivatives using variable selection k nearest neighbor QSAR method” (J Med Chem, 2002)
